The results in this text go back to US20250222123A1, “COMPOUND COMPRISING FC-BINDING UNIT, AND CONJUGATE PREPARED USING SAME” (ABTIS CO., LTD., priority 2022, published 2025).

The test system of experiment [1] is MIA PaCa-2 (CLDN18.2-). In words: Cell-based ELISA, CLDN18.2-negative cancer cells. It counts as binding. The conditions noted are these: parental MIA PaCa-2, CLDN 18.2-negative cell line. How it is done: (§1) Four types of cell lines (MIA PaCa-2˜CLDN18.2, PATU8988S, parental MIA PaCa-2 (CLDN18.2-), and SNU601) were prepared. At this time, MIA PaCa-2˜CLDN18.2 and PATU8988S are CLDN18.2-positive pancreatic cancer cell lines. MIA PaCa-2 (CLDN18.2-) is a CLDN18.2-negative pancreatic cancer cell line. SNU601 is a CLDN18.2-positive gastric cancer cell line.
(§2) The prepared cell lines were cultured in DMEM containing 10% FBS and 1% penicillin/streptomycin (MIA PaCa-2˜CLDN18.2, MIA PaCa-2 (CLDN18.2-)), RPMI1640 containing 10% FBS and 1% penicillin/streptomycin (SNU601), and DMEM comprising 5% FBS, 5% horse serum, 1% penicillin/streptomycin, and […] L-glutamine (PATU8988S) in an incubator under the conditions of 37° C. and 5% CO2.
(§3) The prepared cell lines were plated on 96-well culture plates, treated with antibody-A, ADC-A, antibody-B, and ADC-B, respectively, and then cell-based ELISA was performed, and OD values were measured. At this time, the measured values are illustrated in FIGS. 38 to 41.
(§4) The measured results were used for regression analysis in GraphPad PRISM® 9.0 software to calculate EC50 and Bmax. The cell binding strengths of antibody-A, ADC-A, antibody-B, and ADC-B to each cell line were evaluated based on the calculated values.
(In general: An ELISA detects its analyte on a solid surface through an enzyme-linked reagent.)

The subject of experiment [2] is MIA PaCa-2˜CLDN18.2. In words: Cell-based ELISA, binding to antigen-expressing cancer cells. How it is done: as §1, §2, §3, §4
In experiment [3] the test system is SNU601. Described as above. The conditions noted are these: SNU601 (CLDN18.2+). The protocol: as §1, §2, §3, §4
For experiment [4], the target named is T1, CLDN18.2 virus-like particle (VLP) (Homo sapiens, UniProt P56856).
T1 construct: purchased CUSABIO TECHNOLOGY LLC CSB-MP005498HU (A5)
Briefly: Indirect ELISA on CLDN18.2 virus-like particle (VLP). It is filed as binding. The following applies: CLDN18.2 (antigen protein), VLP-coated plate. How it is done:
To confirm the binding strength to an antigen, a CLDN18.2 virus-like particle (VLP) in which the claudin 18.2 protein (CLDN18.2) was expressed was prepared. At this time, CLDN18.2˜VLP is CSB-MP005498HU (A5) from CUSABIO TECHNOLOGY LLC.
After a 96-well plate was coated with the CLDN18.2 VLP for ELISA and treated with antibody-A and ADC-A, respectively, indirect ELISA was performed to measure OD values. At this time, the measured values are illustrated in FIG. 37.
The measured results were used for regression analysis in GraphPad PRISM® 9.0 software to calculate EC50 and Bmax. The antigen binding strengths of antibody-A, ADC-A, antibody-B, and ADC-B were evaluated based on the calculated values.

Like-named read-outs stand apart in the source and are kept apart here.

In general, Kd refers to the equilibrium constant for the complex coming apart.

Take Zolbetuximab [Antibody-B]: the “binding to cell line (in words)” value in experiment [1] is on record as “did not bind”. Further, the Bmax was 3.053 in experiment [2], 1.701 in experiment [3] and 2.134 in experiment [4]. In addition, the dissociation constant (Kd) was determined as 0.045 µg/mL in experiment [2] (pancreatic cancer cell line), 0.3 nM in experiment [2] (read-out: Kd), 0.032 µg/mL in experiment [3] (gastric cancer cell line) and 0.213 nM in experiment [3] (read-out: Kd).
